{"source": "patent US20180049996A1", "about": "“THERAPEUTIC AGENT FOR CHRONIC RESPIRATORY DISEASE AND COMPOSITION FOR INHIBITING CARDIAC FIBROSIS” (NIPPON HYPOX LABORATORIES INCORPORATED, priority 2015, published 2018)", "key": {"[1]": {"tested_on": "Pulmonary Fibrosis Induced by Bleomycin", "experiment": "Bronchoalveolar lavage (BAL) examination, cell numbers, pulmonary fibrosis induced by bleomycin", "assay_type": "in vivo, male SD rats", "procedure": "(§1) Bleomycin is used to produce disease-model animals of interstitial pneumonia. The bleomycin and 2,3,5-trimethylhydroquinone-1-hexyl ether (HTHQ) as the hydroquinone derivative represented by the general formula (1) described above of the present invention were simultaneously administered to male SD rats of 10 week old after birth to examine the effect of the action. The test groups consisted of the control group to which sterile saline was administered; test group 1 to which bleomycin (7.5 mg/kg body weight) alone was administered; test group 2 to which bleomycin (7.5 mg/kg body weight) and HTHQ (50 mg/kg body weight/day) were administered in combination; and test group 3 to which bleomycin (7.5 mg/kg body weight) and HTHQ (200 mg/kg body weight/day) were administered in combination.\n(§2) In test groups 1 to 3, bleomycin was orally administered in a single dose. In test groups 2 and 3, 2,3,5-trimethylhydroquinone-1-hexyl ether (HTHQ) was daily orally administered for 10 or 20 days starting from 24 h after the administration of bleomycin. In test group 1, olive oil, which was used as a solvent of HTHQ, was daily orally administered at 10 mL/kg/day starting from 24 h after the administration of bleomycin. The number of animals in each group was 16. 8 animals of each group were sacrificed on days 10 and 20 after the administration of bleomycin and measurement of body weight, lung autopsy, histopathologic examination of lungs and bronchoalveolar lavage examination were conducted.\nBronchoalveolar lavage (BAL) examination was conducted on the rats in the control group and the test groups. When interstitial pneumonia developed, the infiltration of inflammatory cells occurs and thus the total cell number in BAL fluid increases. The total cell numbers on day 10 after the administration of bleomycin were as follows: 2×10^5 cells in the control group, 9×10^5 cells in test group 1 (the bleomycin-single administration group), 6.5×10^5 cells in test group 2 (the low-dose HTHQ-administered group, 50 mg/kg body weight), and 10.5×10^5 cells in test group 3 (the high-dose HTHQ-administered group, 200 mg/kg body weight), and thus the effect of HTHQ administration was not found on day 10 after the administration of bleomycin.\nWhen interstitial pneumonia developed, the infiltration of alveolar macrophages to interstitial tissue occurs and thus the alveolar macrophage number in BAL fluid increases. The alveolar macrophage numbers on day 10 after the administration of bleomycin were as follows: 1.45×10^5 cells in the control group, 4.5×10^5 cells in test group 1 (the bleomycin-single administration group), 1.99×10^5 cells in test group 2 (the low-dose HTHQ-administered group), and 3.24×10^5 cells in test group 3 (the high-dose HTHQ-administered group), and thus the effect of HTHQ administration was not found on day 10 after the administration of bleomycin. However, on day 20 after the administration, while the alveolar macrophage number of the bleomycin-single administration group was 5.5×10^5 cells, the alveolar macrophage number of the low-dose HTHQ-administered group was 3×10^5 cells and the alveolar macrophage number of the high-dose HTHQ-administered group was decreased to 2×10^5 cells.\nWhen interstitial pneumonia developed, the infiltration of inflammatory cells of neutrophils to interstitial tissue occurs and thus the neutrophil number in BAL fluid increases. The neutrophil numbers on day 10 after the administration of bleomycin were as follows: 1.04×10^4 cells in the control group, 2.28×10^5 cells in test group 1 (the bleomycin-single administration group), 1.44×10^5 cells in test group 2 (the low-dose HTHQ-administered group), and 5.83×10^5 cells in test group 3 (the high-dose HTHQ-administered group), and thus the effect of HTHQ was not found on day 10 after the administration of bleomycin. […]"}, "[2]": {"tested_on": "Myocardial Disorder Induced by Doxorubicin", "experiment": "Relative weights of the hearts, myocardial disorder induced by doxorubicin", "assay_type": "in vivo, female SD rats", "conditions": "Test group 2: doxorubicin 13 mg/kg + HTHQ 50 mg/kg oral", "description": "Doxorubicin is used to produce disease-model animals of cardiomyopathy. […] The recombinant human erythropoietin (rHuEPO) is mainly used in the treatment of renal anemia etc., and has the effect to protect myocardium. The test group 3 is used to confirm the presence or absence of the inhibitory effect brought about by combining HTHQ and rHuEPO on myocardial disorder. […] Recombinant human erythropoietin was daily administered to the rats in test group 3 starting from 3 days before the administration of doxorubicin by intravenous injection. The number of animals in each group was 16. 8 animals of each group were sacrificed after collecting blood on day 7 and 14 after the administration of doxorubicin, and the autopsy of the hearts, the calculation of the relative weights of the hearts, the histopathologic examination of the hearts and the hematological examination were conducted. Myocardium is hypertrophied by fibrosing and the weight of the myocardium increases, and the relative weight of the heart tends to increase. […] Also, there was no significant difference between the other groups on day 7 and 14 after the administration (p<0.05)."}, "[3]": {"tested_on": "Pulmonary Fibrosis Induced by Bleomycin", "experiment": "Gross pathology of lungs, pulmonary fibrosis induced by bleomycin", "assay_type": "in vivo, male SD rats", "conditions": "test groups 2 and 3: bleomycin 7.5 mg/kg + HTHQ 50 or 200 mg/kg/day oral; day 20", "procedure": "as §1\nas §2, with “8 animals of each group were sacrificed on days 10 and 20 after the administration of bleomycin and measurement of body weight, lung autopsy, histopathologic examination of lungs and bronchoalveolar lavage examination were conducted.” left out"}, "[4]": {"conditions": "Test group 2: bleomycin + HTHQ 50 mg/kg/day oral, day 10"}, "[5]": {"conditions": "Test group 3: bleomycin + HTHQ 200 mg/kg/day oral, day 10"}, "[6]": {"conditions": "bleomycin + HTHQ 50 mg/kg/day oral (low-dose), day 20"}, "[7]": {"conditions": "bleomycin + HTHQ 200 mg/kg/day oral (high-dose), day 20"}}, "note": "Marks after values point to notes of the source that are not given here."}
{"molecule": "CCCCCCOc1cc(C)c(O)c(C)c1C", "note": "[HTHQ, 2,3,5-trimethylhydroquinone-1-hexyl ether]", "values": [{"measurement": "alveolar macrophage number in BAL fluid", "setting": "[1]; [4]", "result": "1.99×10^5 cells"}, {"measurement": "lymphocyte number in BAL fluid", "setting": "[1]; [4]", "result": "3.07×10^5 cells"}, {"measurement": "neutrophil number in BAL fluid", "setting": "[1]; [4]", "result": "1.44×10^5 cells"}, {"measurement": "total cell number in BAL fluid", "setting": "[1]; [4]", "result": "6.5×10^5 cells"}, {"measurement": "alveolar macrophage number in BAL fluid", "setting": "[1]; [5]", "result": "3.24×10^5 cells"}, {"measurement": "lymphocyte number in BAL fluid", "setting": "[1]; [5]", "result": "1.43×10^5 cells"}, {"measurement": "neutrophil number in BAL fluid", "setting": "[1]; [5]", "result": "5.83×10^5 cells"}, {"measurement": "total cell number in BAL fluid", "setting": "[1]; [5]", "result": "10.5×10^5 cells"}, {"measurement": "alveolar macrophage number in BAL fluid", "setting": "[1]; [6]", "result": "3×10^5 cells"}, {"measurement": "lymphocyte number in BAL fluid", "setting": "[1]; [6]", "result": "0.53×10^5 cells"}, {"measurement": "neutrophil number in BAL fluid", "setting": "[1]; [6]", "result": "4.34×10^5 cells"}, {"measurement": "total cell number in BAL fluid", "setting": "[1]; [6]", "result": "7.9×10^5 cells"}, {"measurement": "alveolar macrophage number in BAL fluid", "setting": "[1]; [7]", "result": "2×10^5 cells"}, {"measurement": "lymphocyte number in BAL fluid", "setting": "[1]; [7]", "result": "0.3×10^5 cells"}, {"measurement": "neutrophil number in BAL fluid", "setting": "[1]; [7]", "result": "1.49×10^5 cells"}, {"measurement": "total cell number in BAL fluid", "setting": "[1]; [7]", "result": "3.8×10^5 cells"}, {"measurement": "relative weight of the heart", "setting": "[2]; Day 7 after administration, p<0.05 vs Test group 1", "result": "0.4208 ± 0.0409^a %"}, {"measurement": "relative weight of the heart", "setting": "[2]; Day 14 after administration", "result": "0.3658 ± 0.0357", "unit": "%"}, {"measurement": "gross pathology of lungs (lesions)", "setting": "[3]", "result": "alleviated"}]}
